# Read-outs that look alike come from different tables or passages of the source.
# How the values were obtained:
# [1] = system: Trichophyton mentagrophytes; test: Topical application in experimental trichophytosis of guinea pigs; assay type: in vivo; parameters: key: ++: slight action = reduction of symptons of the infection; +++: action = rapid healing of the infection; ++++: good action = complete suppression of symptoms of the infection; details: 1% strength solution, topically for 11 to 14 days
# Source text: a. Topical application in experimental trichophytosis of guinea pigs (excitant: Trichophyton mentagrophytes)
# A 1% strength solution of the active compound in a dimethylsulphoxide/glycerine/water mixture (1:3:6) or in polyethylene glycol 400 was applied topically for 11 to 14 days after the trichophytosis had been caused experimentally.
# Candida albicans = test: Antimycotic activity in vitro, series dilution test; assay type: cell-based; details: 28° C, 24 to 96 hours, read-out: Minimum Inhibitory Concentration
# Experimental: (§1) Determination of the antimycotic spectrum of activity in vitro by the series dilution test.
# (§2) The nutrient media used were Sabouraud's milieu d'epreuve for dermatophytes and molds and meat broth-glucose bouillon for blastomycetes and biphase fungi.
# (§3) The incubation temperature was 28° C and the incubation time was 24 to 96 hours.
# Aspergillus niger = test: as above; assay type: cell-based; details: 28° C, 24 to 96 hours, read-out: Minimum Inhibitory Concentration
# Experimental: as §1, §2, §3
# Penicillium commune = test: as above; assay type: cell-based; details: 28° C, 24 to 96 hours, serum not stated, read-out: Minimum Inhibitory Concentration
# Experimental: as §1, §2, §3
# Microsporon canis = test: as above; assay type: cell-based; details: 28° C, 24 to 96 hours; serum not stated; read-out: Minimum Inhibitory Concentration
# Experimental: as §1, §2, §3
# [2] = system: Trichophyton mentagrophytes; test: as above; assay type: cell-based; details: 28° C, 24 to 96 hours, read-out: Minimum Inhibitory Concentration
# Experimental: as §1, §2, §3
Structure (SMILES),MIC (Candida albicans; n.s. = no added serum) [µg/mL],MIC (Aspergillus niger; n.s. = no added serum) [µg/mL],MIC (Aspergillus niger; w.s. = with 30% serum added) [µg/mL],MIC (Penicillium commune) [µg/mL],MIC (Microsporon canis) [µg/mL],MIC ([2]; n.s. = no added serum) [µg/mL],MIC ([2]; w.s. = with 30% serum added) [µg/mL],MIC (Candida albicans; w.s. = with 30% serum added) [µg/mL],Action in trichophytosis of guinea pigs [1]
"Cc1cc(Cl)ccc1C(c1ccccc1)(c1ccccc1)n1ccnc1 [Example 4 (from Table 1), 1-(2-Methyl-4-chlorophenyl-diphenyl)-methyl-imidazole]",,1,10,4,4,,,,
"Clc1cccc(Cl)c1C(c1ccccc1)(c1ccccc1)n1ccnc1 [Example 7 (from Table 1), 1-(2,6-Dichlorophenyl-diphenyl)-methyl-imidazole]",,< 1,4,4,< 1,,,,
Clc1cccc(C(c2ccccc2)(c2ccccc2)n2ccnc2)c1Cl [Example 6],1,< 1,10,4,< 1,< 1,4,,++
"Clc1ccccc1C(c1ccccc1)(c1ccccc1Cl)n1ccnc1 [Example 9 (from Table 1), 1-(2-Chlorophenyl-2'-chlorophenyl-phenyl) -methyl-imidazole]",,< 1,,1,< 1,,,,
"Cc1ccccc1C(c1ccccc1)(c1ccccc1C)n1ccnc1 [Example 8 (from Table 1), 1-(2-Methylphenyl-2'-methylphenyl-phenyl)-methyl-imidazole]",,< 1,10,10,4,,,10,

# Continued, in another order:
MIC (Candida albicans; n.s. = no added serum) [µg/mL],MIC (Aspergillus niger; n.s. = no added serum) [µg/mL],MIC (Aspergillus niger; w.s. = with 30% serum added) [µg/mL],MIC (Penicillium commune) [µg/mL],MIC (Microsporon canis) [µg/mL],MIC ([2]; n.s. = no added serum) [µg/mL],MIC ([2]; w.s. = with 30% serum added) [µg/mL],MIC (Candida albicans; w.s. = with 30% serum added) [µg/mL],Structure (SMILES),Action in trichophytosis of guinea pigs [1]
1,1,4,100,4,< 1,10,,Cc1ccc(C(c2ccccc2)(c2ccccc2)n2ccnc2)c(C)c1 [Example 2],++++
,,,< 1,4,,,,"Cc1cccc(C(c2ccccc2)(c2ccccc2)n2ccnc2)c1C [Example 1 (from Table 1), 1-(2,3-dimethylphenyl-diphenyl)-methyl-imidazole]",
,1,40,4,4,,,,"Cc1ccc(C)c(C(c2ccccc2)(c2ccccc2)n2ccnc2)c1 [Example 3 (from Table 1), 1-(2,5-Dimethylphenyl-diphenyl)-methyl-imidazole]",

# From patent publication US4052409A, “Disubstituted triphenylmethylimidazoles” (Bayer Aktiengesellschaft, priority 1972, dated 1977)
